Data published in US20140248218A1, “ROS-SENSITIVE FLUORESCENT PROBES” (The Regents of the University of California, priority 2013, published 2014).

What was measured:
[1] = Solubility in aqueous buffer; type: physicochemical; details: ~1% DMSO (by volume), micromolar concentrations
Text: The corresponding control compound lacking the boronic ester trigger was also synthesized for evaluation (FIG. 3, CBn). Both CBBE and FBBBE were quite soluble in aqueous buffer, using only ˜1% DMSO (by volume) when preparing samples at micromolar concentrations.

[2] = Fluorescence response of the probes to H2O2 (luminescence spectroscopy, fluorescence turn-on); type: physicochemical; details: for increase in fluorescence in response to excess H2O2 (fluorescence turn-on): 1 μM probe, 50 mM HEPES pH 7.5, H2O2 300 eq (300 μM), ratio of integrated final and initial emission; for change of emission on treatment with H2O2: 50 mM HEPES pH 7.5; for relation of relative emission to H2O2 concentration: 15 min incubation with H2O2, integrated emission
Description: Fluorescence emission spectra were recorded with a Perkin-Elmer LS-55 fluorescence spectrometer. To a 2.0 mL solution of probe of varying concentrations in HEPES buffer (50 mM, pH 7.5) was added H2O2 in HEPES to monitor fluorescence turn-on. Spectra were monitored over time at room temperature with quartz cuvettes.
To quantitate the fluorescence turn-on, a sample of each probe (1 μM in 50 mM HEPES pH 7.5) was prepared. An excess of H2O2 (300 eq, 300 μM) was added to the latent fluorophore and spectra were recorded until no increase in fluorescence intensity was observed, signifying a complete reaction. The collected initial and final emission spectrum were integrated, and the ratio reports the fluorescence turn on.
FBBBE and CBBE were evaluated for H2O2 sensitivity under simulated physiological conditions (50 mM HEPES, pH 7.5). For FBBBE, the installation of the benzyl protecting group forces the compound to remain in the closed lactone form, rendering FBBBE (and FBn) nonfluorescent. […] Along with the observed fluorescence increase, the absorption spectrum of FBBBE considerably changed upon H2O2 addition with a large increase in the visible absorption band (λmax=494 nm). The final spectrum recorded was identical to that of an authentic sample of fluorescein, providing additional proof that the probe was undergoing complete deprotection to the desired product (FIG. 7). […] FBBBE was incubated with different concentrations of H2O2 for 15 min and then the emission spectrum was collected.
The coumarin-based compound, CBBE, was nonfluorescent in the absence of H2O2. […] (FIG. 12).
(§1) Additional studies were performed to quantify the fluorescence turn-on for each probe to directly compare the sensitivity to H2O2. […] To determine the sensitivity of these probes in a more quantitative fashion, pseudo first-order kinetic measurements were performed using UV-Vis absorption spectroscopy. The observed rate constants for FBBBE and CBBE activation by H2O2 were kobs=3.1×10-5 s-1 and kobs=4.6×10-3 s-1, respectively. It was determined that the deprotection of CBBE was much faster than FBBBE. This may be likely due to the fact that FBBBE contains two boronic ester triggers that are required for complete release of the fluorophore. Recently, it has been shown that boronic ester based probes can be sensitive to other biologically relevant ROS, such as hypochlorite (—OCl) and peroxynitrite (—ONOO).^[26]

[3] = Fluorescent response of probe to hypochlorite compared with H2O2; type: physicochemical; details: 1 μM probe, 100 μM ROS, 50 mM HEPES pH 7.5, 25° C.
Description: FIG. 16. Histograms of fluorescent responses of 1 μM FBBBE to hydrogen peroxide (H2O2) and hypochlorite (OCl^−): (Data shown are for 100 μM of each ROS) hydrogen peroxide and hypochlorite were delivered from 30% and 5% aqueous solutions, respectively and spectra were acquired in 50 mM HEPES (pH 7.5) wherein all data were obtained after incubation with the appropriate ROS at 25° C.; the collected emission was integrated between […] (λex=480 nm), and bars represent relative responses (left to right) at 5 (white), 15 (light gray), 30 (gray), 45 (dark gray), and 60 min (black) after addition of ROS.
as §1, with “Recently, it has been shown that boronic ester based probes can be sensitive to other biologically relevant ROS, such as hypochlorite (—OCl) and peroxynitrite (—ONOO).^[26]” left out

[4] = tested on: mouse brain; assay: Confocal fluorescence imaging of H2O2 in mouse brain tissue sections (ex vivo); details: for fluorescence turn-on in brain tissue: 50 μM compound 1 h, sections incubated with PBS or 100 μM H2O2
Description: (§2) 3-4 week old female C57BL/6J mice were purchased from Jackson Laboratory (Bar Harbor, Me.). Mice were sacrificed and perfused with sterile PBS. The brain and spinal cord were harvested and imbedded in Tissue-Tek® OCT Compound (Sakura Finetek USA, Torrance, Calif.) and frozen in dry ice before storage at −80° C. All animal studies were reviewed and approved by the University of California, San Diego Institutional Animal Care and Use Committee (La Jolla, Calif.).
(§3) For confocal microscopy, the frozen tissue was cut into 10-μm sections on a Leica cryomicrotome and mounted on slides. Tissue sections were fixed in ice-cold 95% ethanol for 15 min and rehydrated in PBS for 5 min at room temperature in a humidity chamber. Tissue sections were either incubated with PBS or 100 μM H2O2 for 1 h at room temperature in a humidity chamber, followed by a 1 h incubation with either 50 μM probe (FBBBE) or 50 μM control (FBn) and a 10 min nuclear stain (DAPI, 4′,6-diamidino-2-phenylindole). The sections were rinsed in PBS and hydrated in water. Coverslips were mounted using Aqua Mount (Thermo Scientific, Waltham, Mass.). Confocal images were obtained at 40× or 80× magnification on an Olympus FV1000 confocal laser scanning microscope. Images were processed using ImageJ software.
Cellular studies were extended to a more physiologically relevant model for H2O2 detection. H2O2 is particularly active in the brain and neuronal tissue, triggered by the metabolism of neurotransmitters.^[28] The brain and spinal cord from 3-4 week old female C57BL/6J mice were excised, frozen in OCT medium, and 10 μm sagittal cryosections were prepared for staining with FBBBE and FBn. At this age, the mice undergo extensive neuronal development and remodeling. Such activity has been associated with higher levels of neurotransmitter activity and ROS in both neurons and microglial cells in the brain. Consistent with the previous experiments, the sections were either incubated with PBS (unstimulated) or H2O2 (FIG. 6). […]

[5] = tested on: mouse spinal cord; assay: Confocal fluorescence imaging of H2O2 in mouse spinal cord tissue sections (ex vivo); details: 50 μM probe 1 h
Description: as §2
as §3, with “Coverslips were mounted using Aqua Mount (Thermo Scientific, Waltham, Mass.). Confocal images were obtained at 40× or 80× magnification on an Olympus FV1000 confocal laser scanning microscope. Images were processed using ImageJ software.” left out
To further investigate whether FBBBE is activated by truly endogenous levels of H2O2, the probe was evaluated in the spinal cord. […] The lack of fluorescence signal from the H2O2-treated samples may be due to an inability of FBBBE to penetrate the spinal cord tissues, which is then subsequently washed away before the image is taken.

[6] = tested on: RAW 264.7 cells; assay: Confocal fluorescence imaging of H2O2 in RAW 264.7 macrophages; type: cell-based, Murine; details: for fluorescence in cells treated with PBS, LPS or H2O2: 50 μM compound 1 h, fixed RAW 264.7 cells
Description: RAW 264.7 macrophages were grown in DMEM supplemented with 10% heat-inactivated fetal bovine serum, 2 mM L-glutamine, 100 μg/mL penicillin, and 100 μg/mL streptomycin (Life Technologies, Carlsbad, Calif.). For confocal microscopy, the RAW 264.7 cells were seeded at 250,000 in glass bottom 35 mm dishes (MatTek Corporation, Ashland, Mass.) and post-adhering (5 h), some dishes were treated with 1 μg/mL of LPS (Sigma-Aldrich, St. Louis, Mo.) for 24 h. Other dishes were treated the next day after plating with either 100 μM H2O2 for 1 h or PBS for 1 h. Cells were washed twice with PBS and fixed in ice-cold 95% ethanol for 15 min. Cells were twice rinsed with PBS and incubated with either 50 μM probe (FBBBE) or 50 μM control (FBn) for 1 h at room temperature. Cells were washed twice with PBS and coverslips were mounted over cells using Aqua Mount (Thermo Scientific, Waltham, Mass.). Confocal images were obtained at 80× magnification on an Olympus FV1000 confocal laser scanning microscope. Images were processed using ImageJ software (NIH).
FBBBE was examined for H2O2 detection in biological samples via confocal microscopy. Murine macrophage RAW 264.7 cells were treated with PBS buffer (unstimulated cells), lipopolysaccharide (LPS, stimulated cells), or with exogenous H2O2, followed by incubation with either FBBBE (FIG. 5a-c) or FBn (FIG. 5d-f). The inflammatory effects of LPS in macrophages are well established and result in a burst of reactive oxygen species and reactive nitrogen intermediates among other inflammatory signatures.^[27] […] The cells are washed and fixed prior to incubating with the probe.

[7] = cited from earlier work

solubility in aqueous buffer [1] | SMILES | increase in fluorescence in response to excess H2O2 (fluorescence turn-on) [2] [fold] | change of emission on treatment with H2O2 [2] | relation of relative emission to H2O2 concentration [2] | fluorescence turn-on in brain tissue [4] | fluorescence in cells treated with PBS, LPS or H2O2 [6] | also measured
quite soluble | CC1(C)OB(c2ccc(COc3ccc4ccc(=O)oc4c3)cc2)OC1(C)C [CBBE, 7-((4-(4,4,5,5-tetramethyl-1,3,2-dioxaborolan-2-yl)benzyl)oxy)-2H-chromen-2-one] | 57 | quickly turned on | linear correlation |  |  | 
 | O=c1ccc2ccc(OCc3ccccc3)cc2o1 [CBn, 7-(benzyloxy)-2H-chromen-2-one, reference compound] |  | no change |  |  |  | 
quite soluble | CC1(C)OB(c2ccc(COc3ccc4c(c3)Oc3cc(OCc5ccc(B6OC(C)(C)C(C)(C)O6)cc5)ccc3C43OC(=O)c4ccccc43)cc2)OC1(C)C [FBBBE, 3′,6′-bis((4-(4,4,5,5-tetramethyl-1,3,2-dioxaborolan-2-yl)benzyl)oxy)-3H-spiro[isobenzofuran-1,9′-xanthen]-3-one] | 52 | large increase in fluorescence | linear correlation | sufficient to activate the probe | observed in all cells | sensitivity to other ROS (OCl-) compared to H2O2 [3]: less sensitive; effect of exogenous H2O2 on fluorescence in brain tissue ([4]; 50 μM probe, 100 μM H2O2 vs PBS): did not alter the fluorescence levels observed; fluorescence in spinal cord tissue with exogenous H2O2 ([5]; 100 μM H2O2, compared to brain tissue): minimal amount of fluorescence; probe activation in unstimulated spinal cord tissue ([5]; PBS): essentially inactive; mean fluorescence, PBS or H2O2 vs LPS treated cells ([6]; 50 μM probe, 1 μg/mL LPS 24 h, p<0.001): statistically different; mean fluorescence, PBS vs H2O2 treated cells ([6]; 50 μM probe, 100 μM H2O2 1 h): not statistically different
 | O=C1OC2(c3ccc(OCc4ccccc4)cc3Oc3cc(OCc4ccccc4)ccc32)c2ccccc21 [FBn, 3′,6′-bis(benzyloxy)-3H-spiro[isobenzofuran-1,9′-xanthen]-3-one, reference compound] |  | does not show any changes |  | no fluorescence turn on was observed | no turn on of fluorescence in any of the cells | 
 | O=C1OC2(c3ccc(O)cc3Oc3cc(O)ccc32)c2ccccc21 [Fluorescein] |  |  |  |  |  | water solubility [7]: excellent water solubility
